In patent US20160374944A1, “COMPOSITIONS AND METHODS FOR TREATING AND PREVENTING CANCER BY TARGETING AND INHIBITING CANCER STEM CELLS” (priority 2011, published 2016):
Where two headings read alike, the source gives them in different places.

Tests used:
[1] = test system: pancreatic cancer stem cells
Pancreatic CSCs [2] = details: NOD/SCID/IL2R gamma mice, 20 mg/kg, 6 weeks
Experimental: (§1) (A) Pancreatic CSCs were orthotopically implanted in pancreas of NSG mice, and treated with or without sulforaphane 20 mg/kg, for 6 weeks, (B and C) Pancreatic CSCs were xenografted sub-cutaneously in NSG mice, and treated with or without rottlerin and embelin 20 mg/kg, for 6 weeks, (D and E) Prostate CSCs were xenografted sub-cutaneously in NSG mice, and treated with or without rottlerin and embelin 20 mg/kg, for 6 weeks. At the end of the treatment, weights of tumors in treated mice were compared with control mice.

[3] = test system: Gli1 and Gli2 in pancreatic CSCs; experiment: nuclear translocation of Gli1 and Gli2 (immunostaining); assay type: cell-based, human; details: EGCG 40 or 60 μM, 24 h
Experimental: Pancreatic CSCs were treated with or without EGCG (40 or 60 μM) for 24 h. At the end of incubation period, CSCs were fixed with paraformaldehyde, permeabilized with titron X100, and blocked with 5% normal goat serum. Cells were then treated with either anti-Gli1 or anti-Gli2 antibody, followed by secondary antibody plus DAPI. Stained cells were mounted and visualized under a fluorescence microscope. Blue fluorescence of DAPI was changed to red color for a better contrast.

[4] = test system: TCF/LEF activity in pancreatic CSCs; experiment: TCF/LEF responsive reporter; assay type: cell-based, human
Experimental: (A) Pancreatic CSCs were treated with EGCG (0-60 μM) for 48 h. At the end of incubation period, the expression of Snail, ZEB1 and Slug was measured by q-RT-PCR. […] (B) Transwell migration assay. Pancreatic CSCs were plated in the top chamber of the transwell and treated with EGCG (0-60 μM) for 24 h. Cells migrated to the lower chambered were fixed with methanol, stained with crystal violet and counted. […] (C) Matrigel invasion assay. CSCs were plated onto the Matrigel-coated membrane in the top chamber of the transwell and treated with EGCG (0-60 μM) for 48 h. Cells invaded to the lower chambered were fixed with methanol, stained with crystal violet and counted. […] (D) Effects of EGCG on TCF-1/LEF activity. […] Transduced CSCs were treated with EGCG (0-60) for 48 h and the GFP fluorescence was measured. […] Cell viability was measured by trypan blue assay. […] At the end of incubation period, colonies were counted. […] Cells invaded to the lower chambered were fixed with methanol, stained with crystal violet and counted. […] Cells migrated to the lower chambered were fixed with methanol, stained with crystal violet and counted. […] Apoptosis was measured by TUNEL assay. […] Transduced CSCs were treated with EGCG (40 μM) with or without quercetin (20 μM) for 48 hrs and the luciferase activity was measured.

Prostate CSCs [5] = experiment: colony formation in soft agar; assay type: cell-based, human; details: 21 days; embelin 0-6 μM, rottlerin 0-2 μM
Experimental: (§2) In particular, embelin is shown to inhibit spheroid and colony formation, and induce caspase-3 and apoptosis. (A) Prostate CSCs were grown in CSC medium and treated with embelin (0-6 μM) for 7 days to obtain primary spheroids. At the end of incubation period, spheroids were collected, reseeded and treated with embelin for another week to obtain secondary spheroids. Cell viability in spheroids was measured by trypan blue assay at the end of 7 and 14 days. […] (B) Prostate CSCs were seeded in soft agar and treated with embelin (0-6 μM) for 21 days. […] (C and D) Activation of caspase-3 and induction of apoptosis is shown.
as §2, with “(A)” for “In particular, embelin is shown to inhibit spheroid and colony formation, and induce caspase-3 and apoptosis. (A)”, “rottlerin (0-2” for “embelin (0-6”, “rottlerin” for “embelin”, “apoptosis.” for “apoptosis is shown.”

Pancreatic CSCs [6] = experiment: pancreatic CSCs xenografted sub-cutaneously in NSG mice; assay type: in vivo; details: NOD/SCID/IL2R gamma mice, 20 mg/kg, 6 weeks
Experimental: as §1

Prostate CSCs [7] = experiment: caspase-3 activity; assay type: cell-based, human; details: 24 h; embelin 0-6 μM, rottlerin 0-2 μM
Experimental: as §2
as §2, with “(A)” for “In particular, embelin is shown to inhibit spheroid and colony formation, and induce caspase-3 and apoptosis. (A)”, “rottlerin (0-2” for “embelin (0-6”, “rottlerin” for “embelin”, “apoptosis.” for “apoptosis is shown.”

[8] = test system: TCF/LEF-1 reporter activity in prostate CSCs; experiment: TCF/LEF1-responsive dual luciferase reporter; assay type: cell-based, human; details: rottlerin 0-2 μM, 24 h, dual luciferase assay
Experimental: (§3) FIG. 17 graphs showing the regulation of Shh, Notch and TGFβ pathways by rottlerin. […] The expression of Patched-1, Patched-2, SMO, Gli1 and Gli2 was measured by qRT-PCR. […] Data were normalized with GAPDH. (D) Prostate CSCs were treated with rottlerin (0-1 μM) for 24 h. The expression of Notch1, Notch3 and JAG1 was measured by qRT-PCR. (E) TCF/LEF-1, Gli and Notch reporter activities. Prostate CSCs were transduced with a mixture of TCF/LEF1-, Gli-, or Notch-responsive firefly luciferase construct and Renilla luciferase construct (40:1) along with lipofectamine. After transduction, medium was changed and CSCs were treated with rottlerin (0-2 μM) for 24 h. […] (F) Immunofluorescence analysis of Gli1 and Gli2 expression in prostate CSCs. Green=Gli1 or Gli2; red=nucleus.

[9] = test system: Gli reporter activity in prostate CSCs; experiment: Gli-responsive dual luciferase reporter; assay type: cell-based, human; details: rottlerin 0-2 μM, 24 h, dual luciferase assay
Experimental: as §3

[10] = test system: Notch reporter activity in prostate CSCs; experiment: Notch-responsive dual luciferase reporter; assay type: cell-based, human; details: rottlerin 0-2 μM, 24 h, dual luciferase assay
Experimental: as §3

C[S+]([O-])CCCCN=C=S (stereo not drawn) [sulforaphane]
growth of pancreatic cancer stem cells [1]: inhibits the growth | tumor growth (weights of tumors vs control mice) (Pancreatic CSCs [2]): inhibit tumor growth

O=C(O[C@@H]1Cc2c(O)cc(O)cc2O[C@@H]1c1cc(O)c(O)c(O)c1)c1cc(O)c(O)c(O)c1 [EGCG, epigallocatechin gallate]
nuclear expression of Gli1 protein [3]: inhibited the nuclear expression | nuclear expression of Gli2 protein [3]: inhibited the nuclear expression | TCF/LEF activity ([4]; EGCG 0-60, 48 h): inhibited TCF/LEF activity | TCF/LEF transcriptional activity ([4]; EGCG 40 μM with or without quercetin 20 μM, 48 hrs, luciferase): inhibited

CC(=O)c1c(O)c(C)c(O)c(Cc2c(O)c3c(c(C(=O)/C=C/c4ccccc4)c2O)OC(C)(C)C=C3)c1O [rottlerin]
colony formation in soft agar (Prostate CSCs [5]): inhibited | tumor growth (weights of tumors vs control mice) (Pancreatic CSCs [6]): inhibit tumor growth | caspase-3 activity (Prostate CSCs [7]): induces | TCF/LEF1 responsive reporter activity [8]: inhibited the TCF/LEF1, Gli1 and Notch responsive reporter activities in a dose-dependent manner | Gli responsive reporter activity [9]: inhibited the TCF/LEF1, Gli1 and Notch responsive reporter activities in a dose-dependent manner | Notch responsive reporter activity [10]: inhibited the TCF/LEF1, Gli1 and Notch responsive reporter activities in a dose-dependent manner
